Source: patent US11596615B2, “Compositions and methods for treatment of insulin resistance” (Temple University—Of The Commonwealth System Of Higher …, priority 2016, dated 2023)
Structures can show the parent of a compound that is named as a salt.

Experiments:
[1] = system: GLUT4; assay: GLUT4 carbonylation in adipose tissue of HFD mice by MRM; format: in vivo, C57BL/6J mice; settings: about 10 mg/kg per day in water, two weeks, n=8, P<0.02, FIG. 8A
Source text: MRM-MS is a quantitative mass spectrometry-based target technology that generates unique fragment ions associated with their corresponding precursor ions. These ions can be detected and quantified in complex matrix samples. The quantitation of peptides is obtained measuring the intensity of the fragment ions. To detect carbonylated GLUT4, specific peptides were selected. The parent ion for the carbonylated GLUT4 sequence LTGWADVSGVLAELKDEK-4HNE (SEQ ID NO:2) with triple charge mass is 696.381 m/z. After fragmentation of the parent ion, relative daughter ions: 1101.94, 788.4758, 917.5138, 988.5555, 722.4186, and 481.9482 m/z were identified and used for the quantification of the carbonylated Glut 4 peptide. […] This internal standard peptide allows a relative quantification because it is used for normalization of the intensity of each GLUT4 peptide within the same sample.
MRM analyses were performed with a DIONEX UltiMate™ 3000 SRLCnano HPLC system (Thermo Scientific) coupled to a TSQ QUANTUM™ ULTRA (Thermo Scientific) triple quadrupole. PINPOINT™ software was used for method development and the optimization of the mass spectrometer parameters, as well as for peptide quantification. […]
Thirty-two C57BL/6J mice 8-weeks old were selected and randomly separated. […] Glucose levels were measured at 20, 40, 80 and 140 minutes after glucose administration in a glucose time test (GTT). […]

[2] = system: db/db mice; assay: Glucose tolerance test in leptin receptor knock-out (db/db) mice; format: in vivo
Experimental: Leptin receptor knock-out (db/db) mice have severe, rapid, spontaneous and early-onset obesity and insulin resistance that is first recognizable at 4 weeks of age. These animals (5 for each group) were used to determine the effect of (S)-2-amino-6-((3-aminopropyl)amino)hexanoic acid dihydrochloride on impaired glucose tolerance at pre-diabetes level. The groups consisted of (i) db/db mice administered 50 mg/kg b.i.d. p.o. (S)-2-amino-6-((3-aminopropyl)amino)hexanoic acid dihydrochloride; (ii) db/db vehicle control-treated mice; and (iii) heterozygous littermate control mice. The treatment period was for 7 days. Glucose tolerance tests were performed as described above.
To determine the effect of (S)-2-amino-6-((3-aminopropyl)amino)hexanoic acid dihydrochloride on impaired glucose tolerance after diabetes is established, 6 week old db/db mice were treated with the drug (50 mg/kg b.i.d. p.o.) for 14 days. The positive control group was treated with metformin at the same dose. […] The results establish that the drug can be used to treat both pre-diabetes, and diabetes wherein the diabetic phenotype has been established.
To assess whether (S)-2-amino-6-((3-aminopropyl)amino)hexanoic acid dihydrochloride delays progression to diabetes or only masks diabetes during treatment period, (i) db/db mice (ii) db/db vehicle control-treated mice; and (iii) heterozygous littermate control mice were treated with and without (S)-2-amino-6-((3-aminopropyl)amino)hexanoic acid dihydrochloride or metformin (50 mg/kg b.i.d. p.o.) for 14 days. The 14 day treatment period was followed by another 14 day period (“wash out period”) in which no treatment was given.

[3] = Liver microsome stability, rat; format: in vitro ADME, Rat (pooled Sprague Dawley; male); settings: male, Sprague Dawley; rat liver microsomes, 1 μM compound, 0.5 mg/ml microsomal protein, 37° C., 2 mM NADPH
Experimental: The stability of the title compound in the presence of liver microsomes was tested at 1 μM compound and 0.5 mg/ml rat or human microsomal protein, at 37° C. with 2 mM NADPH (standard in vitro screening concentrations). […] The “t1/2” values are the maximum time employed for the respective assays.

NCCCNCCCC[C@H](N)C(=O)O [APL, (S)-2-amino-6-((3-aminopropyl)amino)hexanoic acid dihydrochloride]
reduction of GLUT4 carbonylations in adipose tissue [1]: about 50% | impaired glucose tolerance after diabetes is established ([2]; 6 week old db/db mice, 50 mg/kg b.i.d. p.o., 14 days, vs metformin at the same dose, FIG. 11): better in reducing impaired glucose tolerance than metformin | impaired glucose tolerance after wash out period ([2]; db/db mice, 50 mg/kg b.i.d. p.o. 14 days, then 14 days no treatment, FIG. 12): still effective in reducing impaired glucose tolerance even after 14 days following treatment removal | impaired glucose tolerance, pre-diabetic stage ([2]; pre-diabetic db/db mice, 50 mg/kg b.i.d. p.o., 7 days, FIG. 10): normalizes impaired glucose tolerance | half-life at 1 μM [3]: > 1 h | microsomal CLint at 1 μM [3]: < 23 µL/min/mg
